Source: patent publication US11141494B2, “Development of neurokinin-1 receptor-binding agent delivery conjugates” (PURDUE RESEARCH FOUNDATION, priority 2014, dated 2021)

Columns and labels:
[1] = in terms of human activity and metabolism; cited from earlier work
[2] = test system: NKIR-transduced xenografts (HEK 293-NKIR) versus non-transduced xenografts (HEK 293-WT); test: PET imaging of 64Cu-labeled NK1R ligand conjugate in tumor xenograft mice (ROI activity, % ID/mL); assay type: in vivo, athymic nude mice; settings: intravenous
Method: A NK-1 receptor-binding radionuclide delivery conjugate was prepared that contained NK1RL, a PEG2 linker, and ^64Cu-labeled chelator (radiochemical purity: 99%) with Specific Activity (SA) of 3.7 MBq/μg. Four NKIR-transduced xenografts (HEK 293-NKIR) were prepared, as well as four non-transduced xenografts (HEK 293-WT) using athymic nude mice. Doses of 140-160 uCi (˜[…]) of ligand per mouse were intravenously administered, and the models were imaged at 1, 4 and 20 hours post-injection using PET. The images were analyzed in a region of interest (ROI) around the tumor xenograft activity, and percentage injected dose per mL (% ID/mL) values were calculated from the mean activity in the ROIs. FIG. 8A is a plot showing ROI activity for the NK1R-transduced and non-transduced xenografts. […] FIG. 8B is a plot showing the ^64Cu—NK1R ligand uptake ratio between the NK1R-transduced and non-transduced xenografts in various areas at 20 hours post-injection.

Row | SMILES | biological half-life [1] | accumulation in NK1R-transduced versus non-transduced xenografts (ROI activity) ([2]; PET at 1, 4 and 20 hours post-injection, HEK 293-NKIR and HEK 293-WT xenografts) | time post-injection at which the ratio between NK1R-transduced and non-transduced xenografts was highest ([2]; PET imaged at 1, 4 and 20 hours post-injection)
1 | [99Tc] [^99mTc, technetium-99m] | 1 day | – | –
2 | O=C(O)CN1CCN(CC(=O)O)CCN(CC(=O)NCCOCCOCCNC(=O)CN2CCC[C@H](OCc3cc(C(F)(F)F)cc(C(F)(F)F)c3)[C@@H]2c2ccccc2)CC1 [NK1RL-PEG2-NOTA-^64Cu conjugate, metal not drawn] | – | specifically accumulated in NK1R-transduced xenografts, but not in non-transduced murine model xenografts | 20 h
